# Results published in patent publication US9334265B2, “3-amino-pyrazole derivatives useful against tuberculosis” (GLAXO GROUP LIMITED, priority 2010, dated 2016).
# Read-outs that look alike come from different tables or passages of the source.
# Experiments:
# [1] = system: Mycobacterium tuberculosis H37Rv; test: Mycobacterium tuberculosis H37Rv Inhibition Assay (Whole Cell Assay); type: cell-based; settings: ATCC 25618 / H37Rv, H37Rv strain (ATCC25618), Middlebrook 7H9, six days at 37° C., resazurin fluorescence after 48 hours
# InhA = molecular target: T1, InhA (Mycobacterium tuberculosis, UniProt P9WGR1); test: Mycobacterium tuberculosis InhA Inhibition Assay (Enzyme Assay); type: biochemical; settings: 5 nM InhA, 50 μM DDCoA, 50 μM NADH, PIPES buffer pH 6.8, initial velocities of NADH consumption
# T1 construct: made in house; host or cells: E. coli
# T1 sequence (P9WGR1 whole entry, looked up): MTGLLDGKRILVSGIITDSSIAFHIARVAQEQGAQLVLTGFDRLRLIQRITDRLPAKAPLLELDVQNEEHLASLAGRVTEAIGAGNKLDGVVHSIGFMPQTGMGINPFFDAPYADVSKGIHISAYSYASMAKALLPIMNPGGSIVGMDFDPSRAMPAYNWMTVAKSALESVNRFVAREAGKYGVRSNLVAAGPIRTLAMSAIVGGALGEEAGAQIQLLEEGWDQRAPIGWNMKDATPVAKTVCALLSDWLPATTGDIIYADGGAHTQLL
# Experimental: InhA is able to reduce 2-trans enoyl-CoA esters with concomitant oxidation of NADH to NAD^+. The assay format is based on the kinetic detection of NADH consumption.
# Assay for InhA inhibition is carried out with mycobacterium recombinant protein expressed and purified form E. coli. Standard assay conditions for the determination of kinetic constants and inhibitors activity use 5 nM of InhA, 50 μM of Dodecenoyl-CoA synthesized and purified as described by Quémard et al (DDCoA) and 50 μM of NADH as substrates, and it is carried out in 30 mM PIPES buffer pH 6.8, containing 0.05% of BSA. […] Triclosan is used as positive control in every experiment. One μl of compounds is added to the wells containing 25 μl of the DDCoA+NADH mix, the reaction is started by adding 50 μl of the enzyme solution. Fluorescence from NADH is followed at room temperature during 20 minutes in a fluorescent plate reader (excitation at 340 nm; emission at 480 nm). IC50 values are determined using initial velocities of NADH consumption. • Quémard A, Sacchettini J C, Dessen A, et al. Enzymatic characterization of the target for isoniazid in Mycobacterium tuberculosis. Biochemistry 1995; 34:8235-41. Results of the Mycobacterium tuberculosis InhA Inhibition Assay (Enzyme Assay)
SMILES,MIC [1] [µM],IC50 (InhA; read-out: IC50 value) [nM],IC50 (InhA; IC50 value) [nM]
"Cc1csc(C(C)(O)c2nnc(Nc3ccn(Cc4cccc5cccnc45)n3)s2)n1 (stereo not drawn) [Example 20, 1-(4-methyl-1,3-thiazol-2-yl)-1-(5-{[1-(8-quinolinylmethyl)-1H-pyrazol-3-yl]amino}-1,3,4-thiadiazol-2-yl)ethanol]",≤ 4,≤ 111,–
"Cc1csc(C(C)(O)c2nnc(Nc3ccn(Cc4cccc(F)n4)n3)s2)n1 (stereo not drawn) [Example 18, 1-[5-({1-[(6-fluoro-2-pyridinyl)methyl]-1H-pyrazol-3-yl}amino)-1,3,4-thiadiazol-2-yl]-1-(4-methyl-1,3-thiazol-2-yl)ethanol]",≤ 1,≤ 120,–
"CCOc1cccc(Cn2ccc(Nc3nnc(C(C)n4nc(C)cc4C)s3)n2)n1 (stereo not drawn) [Example 36, 5-[1-(3,5-dimethyl-1H-pyrazol-1-yl)ethyl]-N-(1-{[6-(ethyloxy)-2-pyridinyl]methyl}-1H-pyrazol-3-yl)-1,3,4-thiadiazol-2-amine]",> 10,≤ 118,–
"Cc1csc(C(C)(O)c2nnc(Nc3ccn(Cc4cn5ccccc5n4)n3)s2)n1 (stereo not drawn) [Example 24, 1-(5-{[1-(imidazo[1,2-a]pyridin-2-ylmethyl)-1H-pyrazol-3-yl]amino}-1,3,4-thiadiazol-2-yl)-1-(4-methyl-1,3-thiazol-2-yl)ethanol]",4 to 10,114 to 228,–
"Cc1cccc(Cn2ccc(Nc3nnc(C(C)n4nc(C)cc4C)s3)n2)n1 (stereo not drawn) [Example 1, 5-[1-(3,5-dimethyl-1H-pyrazol-1-yl)ethyl]-N-{1-[(6-methyl-2-pyridinyl)methyl]-1H-pyrazol-3-yl}-1,3,4-thiadiazol-2-amine]",> 10,≤ 127,–
"Cc1cc(C)n(C(C)c2nnc(Nc3ccn(Cc4cccnc4F)n3)s2)n1 (stereo not drawn) [Example 7, 5-[1-(3,5-dimethyl-1H-pyrazol-1-yl)ethyl]-N-{1-[(2-fluoro-3-pyridinyl)methyl]-1H-pyrazol-3-yl}-1,3,4-thiadiazol-2-amine]",4 to 10,≤ 125,–
"CCOc1cnc(Cn2ccc(Nc3nnc(C(C)(O)c4nc(C)cs4)s3)n2)c(F)c1 (stereo not drawn) [Example 30, 1-{5-[(1-{[5-(ethyloxy)-3-fluoro-2-pyridinyl]methyl}-1H-pyrazol-3-yl)amino]-1,3,4-thiadiazol-2-yl}-1-(4-methyl-1,3-thiazol-2-yl)ethanol]",> 10,–,217 to 1080
"Cc1csc(C(C)(O)c2nnc(Nc3ccn(Cc4csc(C)n4)n3)s2)n1 (racemic) [Example 21, 1-(4-methyl-1,3-thiazol-2-yl)-1-[5-({1-[(2-methyl-1,3-thiazol-4-yl)methyl]-1H-pyrazol-3-yl}amino)-1,3,4-thiadiazol-2-yl]ethanol]",≤ 1,≤ 119,–
"Cc1csc([C@@](C)(O)c2nnc(Nc3ccn(Cc4csc(C)n4)n3)s2)n1 (single isomer, unassigned) [Example 44]",> 10,–,238 to 1190
"Cc1cc(C)n(C(C)c2nnc(Nc3ccn(C(C)c4ncccc4F)n3)s2)n1 (stereo not drawn) [Example 35, 5-[1-(3,5-dimethyl-1H-pyrazol-1-yl)ethyl]-N-{1-[1-(3-fluoro-2-pyridinyl)ethyl]-1H-pyrazol-3-yl}-1,3,4-thiadiazol-2-amine]",> 10,≤ 121,–
"Cc1csc(C(C)c2nnc(Nc3ccn(Cc4ncccc4F)n3)s2)n1 (stereo not drawn) [Example 34, N-{1-[(3-fluoro-2-pyridinyl)methyl]-1H-pyrazol-3-yl}-5-[1-(4-methyl-1,3-thiazol-2-yl)ethyl]-1,3,4-thiadiazol-2-amine]",≤ 4,≤ 125,–
"Cc1csc(C(C)(O)c2nnc(Nc3ccn(Cc4[nH]ccc(=O)c4F)n3)s2)n1 (stereo not drawn) [Example 33, 3-fluoro-2-{[3-({5-[1-hydroxy-1-(4-methyl-1,3-thiazol-2-yl)ethyl]-1,3,4-thiadiazol-2-yl}amino)-1H-pyrazol-1-yl]methyl}-4(1H)-pyridinone]",> 10,–,> 1150
"Cc1csc(C(C)(O)c2nnc(Nc3ccn(Cc4ncccc4F)n3)s2)n1 (racemic) [Example 38, 1-[5-({1-[(3-fluoro-2-pyridinyl)methyl]-1H-pyrazol-3-yl}amino)-1,3,4-thiadiazol-2-yl]-1-(4-methyl-1,3-thiazol-2-yl)ethanol]",≤ 1,≤ 120,–
"Cc1csc(C(C)(O)c2nnc(Nc3ccn(Cc4ccc5ccccc5n4)n3)s2)n1 (stereo not drawn) [Example 15, 1-(4-methyl-1,3-thiazol-2-yl)-1-(5-{[1-(2-quinolinylmethyl)-1H-pyrazol-3-yl]amino}-1,3,4-thiadiazol-2-yl)ethanol]",≤ 4,≤ 111,–
"Cc1ccn([C@H](C)c2nnc(Nc3ccn(Cc4ncccc4F)n3)s2)n1 (single isomer, unassigned) [Example 39]",> 10,–,260 to 1300
"CCc1csc(C(C)(O)c2nnc(Nc3ccn(Cc4csc(C)n4)n3)s2)n1 (stereo not drawn) [Example 47, 1-(4-ethylthiazol-2-yl)-1-(5-((1-((2-methylthiazol-4-yl)methyl)-1H-pyrazol-3-yl)amino)-1,3,4-thiadiazol-2-yl)ethanol]",≤ 1,–,≤ 115
"Cc1csc([C@](C)(O)c2nnc(Nc3ccn(Cc4csc(C)n4)n3)s2)n1 (single isomer, unassigned) [Example 43]",–,–,≤ 119
"Cc1cc(C)n(C(C)c2nnc(Nc3ccn(Cc4cccnc4)n3)s2)n1 (stereo not drawn) [Example 4, 5-[1-(3,5-dimethyl-1H-pyrazol-1-yl)ethyl]-N-[1-(3-pyridinylmethyl)-1H-pyrazol-3-yl]-1,3,4-thiadiazol-2-amine]",> 10,≤ 131,–
"Cc1ccn(C(C)c2nnc(Nc3ccn(Cc4c(C)noc4C)n3)s2)n1 (stereo not drawn) [Example 27, N-{1-[(3,5-dimethyl-4-isoxazolyl)methyl]-1H-pyrazol-3-yl}-5-[1-(3-methyl-1H-pyrazol-1-yl)ethyl]-1,3,4-thiadiazol-2-amine]",> 10,–,> 1300
"Cc1csc(C(C)(O)c2nnc(Nc3ccn(Cc4nccc(C)c4F)n3)s2)n1 (stereo not drawn) [Example 37, 1-[5-({1-[(3-fluoro-4-methyl-2-pyridinyl)methyl]-1H-pyrazol-3-yl}amino)-1,3,4-thiadiazol-2-yl]-1-(4-methyl-1,3-thiazol-2-yl)ethanol]",≤ 4,≤ 116,–
"COc1c(C)cnc(Cn2ccc(Nc3nnc(C(C)(O)c4nc(C)cs4)s3)n2)c1C (stereo not drawn) [Example 31, 1-{5-[(1-{[3,5-dimethyl-4-(methyloxy)-2-pyridinyl]methyl}-1H-pyrazol-3-yl)amino]-1,3,4-thiadiazol-2-yl}-1-(4-methyl-1,3-thiazol-2-yl)ethanol]",> 10,–,219 to 1090
"Cc1csc(C(C)(O)c2nnc(Nc3cc(C)n(Cc4ncccc4F)n3)s2)n1 (stereo not drawn) [Example 28, 1-[5-({1-[(3-fluoro-2-pyridinyl)methyl]-5-methyl-1H-pyrazol-3-yl}amino)-1,3,4-thiadiazol-2-yl]-1-(4-methyl-1,3-thiazol-2-yl)ethanol]",≤ 4,–,≤ 116
"Cc1cc(C)n(C(C)c2nnc(Nc3ccn(Cc4ncccc4F)n3)s2)n1 (stereo not drawn) [Example 6, 5-[1-(3,5-dimethyl-1H-pyrazol-1-yl)ethyl]-N-{1-[(3-fluoro-2-pyridinyl)methyl]-1H-pyrazol-3-yl}-1,3,4-thiadiazol-2-amine]",≤ 4,≤ 125,–
"Cc1csc(C(C)(O)c2nnc(Nc3ccn(Cc4c(C)noc4C)n3)s2)n1 (stereo not drawn) [Example 26, 1-[5-({1-[(3,5-dimethyl-4-isoxazolyl)methyl]-1H-pyrazol-3-yl}amino)-1,3,4-thiadiazol-2-yl]-1-(4-methyl-1,3-thiazol-2-yl)ethanol]",> 10,–,> 1200
"Cc1csc(C(C)(O)c2nnc(Nc3ccn(Cc4c(F)cncc4F)n3)s2)n1 (stereo not drawn) [Example 32, 1-[5-({1-[(3,5-difluoro-4-pyridinyl)methyl]-1H-pyrazol-3-yl}amino)-1,3,4-thiadiazol-2-yl]-1-(4-methyl-1,3-thiazol-2-yl)ethanol]",> 10,–,> 1150
"Cc1ccn(C(C)c2nnc(Nc3ccn(Cc4cccnc4F)n3)s2)n1 (stereo not drawn) [Example 10, N-{1-[(2-fluoro-3-pyridinyl)methyl]-1H-pyrazol-3-yl}-5-[1-(3-methyl-1H-pyrazol-1-yl)ethyl]-1,3,4-thiadiazol-2-amine]",> 10,–,130 to 260
"Cc1csc(C(C)(O)c2nnc(Nc3ccn(Cc4ncc(F)cc4F)n3)s2)n1 (stereo not drawn) [Example 12, 1-[5-({1-[(3,5-difluoro-2-pyridinyl)methyl]-1H-pyrazol-3-yl}amino)-1,3,4-thiadiazol-2-yl]-1-(4-methyl-1,3-thiazol-2-yl)ethanol]",≤ 4,–,115 to 230
"Cc1csc(C(C)(O)c2nnc(Nc3ccn(Cc4ncccc4O)n3)s2)n1 (stereo not drawn) [Example 16, 2-{[3-({5-[1-hydroxy-1-(4-methyl-1,3-thiazol-2-yl)ethyl]-1,3,4-thiadiazol-2-yl}amino)-1H-pyrazol-1-yl]methyl}-3-pyridinol]",> 10,–,–
